For test [1], the target named is Heat shock protein HSP 90-alpha (Homo sapiens, UniProt P07900). Kind of test: Inhibition of fluorescein isothiocyanate labeled geldanamycin binding to recombinant Hsp90alpha (unknown origin) after 1 hr by fluorescence polarization assay. A general note: In fluorescence polarisation assays a small probe gives low polarisation when free and higher when bound to something large.

Test [2] has as its system NCI-H3122. Kind of test: Antiproliferative activity against human NCI-H3122 cells after 72 hrs by SRB assay. Format: functional, cell-based. As to conditions: NCI-H3122, 72 h. A general note: Sulforhodamine B stains cellular protein and so reports cell mass.
The next test concerns A549. Kind of test: Antiproliferative activity against human A549 cells after 72 hrs by SRB assay. The conditions noted are these: A549, 72 h. It counts as functional, cell-based.
Another test deals with NCI-H460. Put plainly: Antiproliferative activity against human NCI-H460 cells after 72 hrs by SRB assay. It counts as functional, cell-based. The conditions noted are these: NCI-H460, 72 h.
For another test, the system named is HCT-116. Kind of test: Antiproliferative activity against human HCT116 cells after 72 hrs by SRB assay. As to conditions: HCT-116, 72 h. It counts as functional, cell-based.
For another test, the system named is BT-474. Put plainly: Antiproliferative activity against human BT474 cells after 72 hrs by SRB assay. Format: functional, cell-based. As to conditions: BT-474, 72 h.
The test system of another test is MDA-MB-231. Kind of test: Antiproliferative activity against human MDA-MB-231 cells after 72 hrs by SRB assay. Format: functional, cell-based. The conditions noted are these: MDA-MB-231, 72 h.
A further test deals with DU-145. Kind of test: Antiproliferative activity against human DU145 cells after 72 hrs by SRB assay. It counts as functional, cell-based. The conditions noted are these: DU-145, 72 h.
For another test, the system named is NCI-N87. Kind of test: Antiproliferative activity against human NCI-N87 cells after 72 hrs by SRB assay. It counts as functional, cell-based. As to conditions: NCI-N87, 72 h.
Another test deals with U-87 MG. Kind of test: Antiproliferative activity against human U87MG cells after 72 hrs by SRB assay. Format: functional, cell-based, U-87MG ATCC.
Test [3] addresses T1, Heat shock protein HSP90 (Homo sapiens) (UniProt P07900+P08238). The conditions noted are these: 100 nM.
Description: Inhibition of Hsp90 in human NCI-H3122 cells assessed as degradation of EML4-ALK fusion protein at 100 nM after 24 hrs by Western blot analysis
Test [4] deals with T1, Heat shock protein HSP90 (Homo sapiens). As to conditions: 11.1 to 100 nM.
Description: Inhibition of Hsp90 in human NCI-H3122 cells assessed as upregulation of Hsp70 at 11.1 to 100 nM after 24 hrs by Western blot analysis
Test [5] shares this target. As to conditions: 11.1 to 100 nM. The source holds these as a separate data set.
Description: Inhibition of Hsp90 in human NCI-H3122 cells assessed as decrease in phosphorylation of AKT at Ser473 at 11.1 to 100 nM after 24 hrs by Western blot analysis
Test [6] has the same target. As to conditions: 11.1 to 100 nM. The source holds these as a separate data set.
Description: Inhibition of Hsp90 in human NCI-H3122 cells assessed as decrease in phosphorylation of ERK1/2 at 11.1 to 100 nM after 24 hrs by Western blot analysis
The test system of test [7] is NCI-H3122. Put plainly: Potency index, ratio of AUY922 IC50 to compound IC50 for human NCI-H3122 cells. Format: functional.

Active and inactive are the calls of the source. The rule behind the calls is not given here.

What is called IC50 is the point on the concentration scale where inhibition reaches its midpoint. With `CC(C)c1cc(-c2onc(C(=O)N[C@@H](C(=O)OC(C)(C)C)C(C)C)c2-c2ccc(CN3CCOCC3)cc2)c(O)cc1O`, the results for the IC50 (in [1]; in the test with NCI-H3122 [2]) were 112 nM and less than 1 nM, respectively.
In the case of `CC(C)c1cc(-c2onc(C(=O)N[C@@H](C(=O)NCCN3CCOCC3)C(C)C)c2-c2ccc(CN3CCOCC3)cc2)c(O)cc1O`, the IC50 was determined as 206 nM in [1] and 139 nM in the test on NCI-H3122 [2].
In the same order, the values of `CC(C)c1cc(-c2onc(C(=O)N[C@@H](C(=O)N3CC(F)(F)C3)C(C)C)c2-c2ccc(CN3CCOCC3)cc2)c(O)cc1O` are 39 nM and 37 nM.
Consider `COC(=O)[C@H](NC(=O)COCCOCCOCCNC(=O)c1noc(-c2cc(C(C)C)c(O)cc2O)c1-c1ccc(CN2CCOCC2)cc1)C(C)C`, for which the 50% inhibitory concentration (IC50) with A549 was determined as 351 nM; in the test on NCI-H460 it was 247 nM; in test [1], 14 nM; in the test on NCI-H3122 [2], 42 nM; in the test on HCT-116 it was 116 nM; with BT-474, 57 nM. The IC50 was found to be 130 nM in the test with MDA-MB-231, 239 nM with DU-145, 564 nM in the test on NCI-N87 and 109 nM with U-87 MG. For the same compound, the inhibition entry in test [3], in test [4], in test [5] and in [6] was “Active” throughout.
Regarding `COC(=O)[C@@H](Cc1ccccc1)NC(=O)CCCCCNC(=O)c1noc(-c2cc(C(C)C)c(O)cc2O)c1-c1ccc(CN2CCOCC2)cc1`, the half-inhibitory concentration (IC50) is 307 nM in test [1] and 90 nM with NCI-H3122 [2].
Turning to `COC(=O)[C@@H](CO)NC(=O)c1noc(-c2cc(C(C)C)c(O)cc2O)c1-c1ccc(CN2CCOCC2)cc1`, the IC50 in [1] turned out to be 72 nM; with NCI-H3122 [2], 227 nM.
In the same order, the values of `CNC(=O)[C@H](NC(=O)c1noc(-c2cc(C(C)C)c(O)cc2O)c1-c1ccc(CN2CCOCC2)cc1)C(C)C` are 21 nM and 39 nM.
`CCNC(=O)c1noc(-c2cc(C(C)C)c(O)cc2O)c1-c1ccc(CN2CCOCC2)cc1` [LUMINESPIB] gave an IC50 in the test with NCI-H3122 [2] of 14 nM.
Consider `COC(=O)[C@@H](Cc1ccccc1)NC(=O)c1cnc(N2CCN(C(=O)c3noc(-c4cc(C(C)C)c(O)cc4O)c3-c3ccc(CN4CCOCC4)cc3)CC2)nc1`, for which the 50% inhibitory concentration (IC50) in [1] was more than 1000 nM; in the test with NCI-H3122 [2], 164 nM.
In the same order, the values of `CCNC(=O)[C@H](NC(=O)c1noc(-c2cc(C(C)C)c(O)cc2O)c1-c1ccc(CN2CCOCC2)cc1)C(C)C` are 28 nM and 34 nM.
With `COC(=O)[C@@H](Cc1ccccc1)NC(=O)COCCOCCOCCNC(=O)c1noc(-c2cc(C(C)C)c(O)cc2O)c1-c1ccc(CN2CCOCC2)cc1`, the half-inhibitory concentration (IC50) was determined as 122 nM in test [1] and 40 nM in the test on NCI-H3122 [2].
In the same order, the values of `COC(=O)[C@@H](Cc1ccccc1)NC(=O)[C@H](NC(=O)c1noc(-c2cc(C(C)C)c(O)cc2O)c1-c1ccc(CN2CCOCC2)cc1)C(C)C` are 397 nM and 79 nM.
Take `COC(=O)[C@H](NC(=O)c1cnc(N2CCC(CNC(=O)c3noc(-c4cc(C(C)C)c(O)cc4O)c3-c3ccc(CN4CCOCC4)cc3)CC2)nc1)C(C)C`: the half-maximal inhibitory concentration (IC50) in test [1] stood at 407 nM; in the test with NCI-H3122 [2], 278 nM.
As to `COC(=O)[C@H](NC(=O)COCCOCCNC(=O)c1noc(-c2cc(C(C)C)c(O)cc2O)c1-c1ccc(CN2CCOCC2)cc1)C(C)C`, the IC50 in test [1] turned out to be 154 nM; in the test on NCI-H3122 [2] it was 90 nM.
The matching figures for `COC(=O)[C@H](NC(=O)[C@H](NC(=O)c1noc(-c2cc(C(C)C)c(O)cc2O)c1-c1ccc(CN2CCOCC2)cc1)C(C)C)C(C)C`: 206 nM and more than 10000 nM.
In the same order, the values of `COC(=O)[C@@H](Cc1ccccc1)NC(=O)c1cnc(N2CCC(CNC(=O)c3noc(-c4cc(C(C)C)c(O)cc4O)c3-c3ccc(CN4CCOCC4)cc3)CC2)nc1` are 749 nM and 1130 nM.
In the same order, the values of `COC(=O)[C@@H](Cc1c[nH]c2ccccc12)NC(=O)c1noc(-c2cc(C(C)C)c(O)cc2O)c1-c1ccc(CN2CCOCC2)cc1` are 368 nM and 149 nM.
As to `COC(=O)[C@H](CCCCNC(=O)OCc1ccccc1)NC(=O)c1noc(-c2cc(C(C)C)c(O)cc2O)c1-c1ccc(CN2CCOCC2)cc1`, the figures for the concentration for half-maximal inhibition (IC50) (in test [1]; with NCI-H3122 [2]) were 514 nM and 4470 nM, respectively.
In the same order, the values of `COC(=O)[C@@H](CC(C)C)NC(=O)c1noc(-c2cc(C(C)C)c(O)cc2O)c1-c1ccc(CN2CCOCC2)cc1` are 151 nM and 19 nM.
In the case of `COC(=O)[C@@H](Cc1ccccc1)NC(=O)COCCOCCNC(=O)c1noc(-c2cc(C(C)C)c(O)cc2O)c1-c1ccc(CN2CCOCC2)cc1`, the 50% inhibitory concentration (IC50) in test [1] is more than 1000 nM; with NCI-H3122 [2], 1530 nM.
As for `CC(C)c1cc(-c2onc(C(=O)N[C@@H](C(=O)N3CCN(C)CC3)C(C)C)c2-c2ccc(CN3CCOCC3)cc2)c(O)cc1O`, the IC50 in test [1] worked out at 429 nM; in the test with NCI-H3122 [2] it was 149 nM.
In the same order, the values of `COC(=O)[C@H](NC(=O)[C@H](NC(=O)C(NC(=O)c1noc(-c2cc(C(C)C)c(O)cc2O)c1-c1ccc(CN2CCOCC2)cc1)C(C)C)C(C)C)C(C)C` (single isomer, unassigned) are 259 nM and 34 nM.
The matching figures for `COC(=O)[C@H](NC(=O)[C@H](NC(=O)[C@H](NC(=O)[C@H](NC(=O)c1noc(-c2cc(C(C)C)c(O)cc2O)c1-c1ccc(CN2CCOCC2)cc1)C(C)C)C(C)C)C(C)C)C(C)C`: 528 nM and 638 nM.
The matching figures for `COC(=O)[C@H](NC(=O)CCCCCNC(=O)c1noc(-c2cc(C(C)C)c(O)cc2O)c1-c1ccc(CN2CCOCC2)cc1)C(C)C`: 98 nM and 65 nM.
With `COC(=O)[C@H](NC(=O)c1cnc(N2CCN(C(=O)c3noc(-c4cc(C(C)C)c(O)cc4O)c3-c3ccc(CN4CCOCC4)cc3)CC2)nc1)C(C)C`, the 50% inhibitory concentration (IC50) was 473 nM in [1] and 135 nM in the test with NCI-H3122 [2].
In the same order, the values of `CC(C)c1cc(-c2onc(C(=O)N[C@@H](C(=O)NC3(CO)CC3)C(C)C)c2-c2ccc(CN3CCOCC3)cc2)c(O)cc1O` are 106 nM and 81 nM.
In the same order, the values of `COC(=O)[C@@H](CC(C)C)NC(=O)[C@H](NC(=O)c1noc(-c2cc(C(C)C)c(O)cc2O)c1-c1ccc(CN2CCOCC2)cc1)C(C)C` are 285 nM and more than 10000 nM.
Regarding `COC(=O)[C@@H](Cc1ccccc1)NC(=O)c1noc(-c2cc(C(C)C)c(O)cc2O)c1-c1ccc(CN2CCOCC2)cc1`, the IC50 stood at 260 nM in [1] and 77 nM with NCI-H3122 [2].
In the same order, the values of `COC(=O)[C@@H](CC1CCCCC1)NC(=O)c1noc(-c2cc(C(C)C)c(O)cc2O)c1-c1ccc(CN2CCOCC2)cc1` are 836 nM and more than 10000 nM.
As to `CCOC(=O)[C@H](NC(=O)c1noc(-c2cc(C(C)C)c(O)cc2O)c1-c1ccc(CN2CCOCC2)cc1)C(C)C`, the IC50 turned out to be 189 nM in [1] and 2 nM in the test with NCI-H3122 [2]. In addition, the “Ratio IC50” value in the test with NCI-H3122 [7] amounted to 10.
Take `COC(=O)[C@H](NC(=O)c1noc(-c2cc(C(C)C)c(O)cc2O)c1-c1ccc(CN2CCOCC2)cc1)C(C)C`: the concentration for half-maximal inhibition (IC50) in test [1] came to 79 nM; with NCI-H3122 [2], 28 nM.

For the origin of these results see ChEMBL document CHEMBL4041474, “Design, synthesis and pharmacological evaluation of 4,5-diarylisoxazols bearing amino acid residues within the 3-amido motif as potent heat shock protein 90 (Hsp90) inhibitors” (Eur J Med Chem, 2017).
